# From ChEMBL document CHEMBL4049425, “Fragment-Based, Structure-Enabled Discovery of Novel Pyridones and Pyridone Macrocycles as Potent Bromodomain and Extra-Terminal Domain (BET) Family Bromodomain Inhibitors” (J Med Chem, 2017)
# pEC50, pKi: −log10 of the molar value.
# Test system: Liver
# Assay: Unbound intrinsic clearance in human liver microsomes
# Type: ADME, microsome
# Conditions: not given
row,SMILES,CL free [mL/min/kg]
1,CCS(=O)(=O)c1ccc2c(c1)-c1cn(C)c(=O)cc1OCCCc1ccccc1O2,148
2,CCOc1cc(=O)n(C)cc1-c1cc(NS(=O)(=O)CC)ccc1Oc1ccc(OC(F)(F)F)cc1,95
3,CCOc1cc(=O)n(C)cc1-c1cc(NS(=O)(=O)CC)ccc1Oc1ccc(Cl)cc1,< 50
4,CCOc1cc(=O)n(C)cc1-c1cc(NS(=O)(=O)CC)ccc1Oc1cccnc1,< 31.7
5,CCOc1cc(=O)n(C)cc1-c1cc(NS(=O)(=O)CC)ccc1OC1CCC(F)(F)CC1,35

# Test system: Liver
# Assay: Unbound intrinsic clearance in rat liver microsomes
# Type: ADME, microsome
# Conditions: not given
row,SMILES,CL free [mL/min/kg]
1,CCOc1cc(=O)n(C)cc1-c1cc(NS(=O)(=O)CC)ccc1Oc1ccc(OC(F)(F)F)cc1,3000
2,CCOc1cc(=O)n(C)cc1-c1cc(NS(=O)(=O)CC)ccc1Oc1ccc(Cl)cc1,88.3
3,CCOc1cc(=O)n(C)cc1-c1cc(NS(=O)(=O)CC)ccc1Oc1cccnc1,< 53.3
4,CCOc1cc(=O)n(C)cc1-c1cc(NS(=O)(=O)CC)ccc1OC1CCC(F)(F)CC1,183

# Target: T1, Bromodomain-containing protein 4 (Homo sapiens, UniProt O60885)
# Assay: Inhibition of human N-terminal His6-tagged BRD4 BD1-BD2 (57 to 550 residues) expressed in EScherichia coli BL21(DE3) after 1 hr by Alexa-647-conjugated probe based TR-FRET assay
# Conditions: not given
row,SMILES,pKi
1,CCS(=O)(=O)c1ccc2c(c1)-c1cn(C)c(=O)cc1OCCCc1ccccc1O2,8.14
2,CCOc1cc(=O)n(C)cc1-c1cc(NS(=O)(=O)CC)ccc1Oc1ccc(OC(F)(F)F)cc1,8.26
3,CCOc1cc(=O)n(C)cc1-c1cc(NS(=O)(=O)CC)ccc1Oc1ccc(Cl)cc1,8.59
4,CCS(=O)(=O)Nc1ccc(Oc2ccc(F)cc2F)c(-c2cn(C)c(=O)cc2OCC(C)(C)O)c1,7.15
5,CCS(=O)(=O)Nc1ccc(Oc2ccccc2)c(-c2cn(C)c(=O)cc2OC)c1,8.09
6,COc1cc(=O)n(C)cc1-c1ccccc1Oc1ccccc1,6.35
7,CCOc1cc(=O)n(C)cc1-c1cc(NS(=O)(=O)CC)ccc1Oc1cccnc1,7.77
8,CCOC(=O)Nc1ccc(Oc2ccccc2)c(-c2nn(C)c(=O)cc2OC)c1,5.96
9,CCS(=O)(=O)Nc1ccc(Oc2ccc(F)cc2F)c(-c2cn(C)c(=O)cc2OCCN2CCOCC2)c1,6.64
10,COC(=O)C[C@@H]1N=C(c2ccc(Cl)cc2)c2c(sc(C)c2C)-n2c(C)nnc21,7.78
11,COc1cc(=O)n(C)cc1-c1cc(NS(C)(=O)=O)ccc1Oc1ccccc1,7.24
12,CCS(=O)(=O)Nc1ccc(Oc2ccc(F)cc2F)c(-c2cn(C)c(=O)cc2OCC(C)C)c1,8.15
13,CCOc1cc(=O)n(C)cc1-c1cc(NS(=O)(=O)CC)ccc1OC1CCC(F)(F)CC1,6.96
14,CCNc1cc(=O)n(C)cc1-c1cc(NS(=O)(=O)CC)ccc1Oc1ccc(F)cc1F,7.85
15,CCNC(=O)Nc1ccc(Oc2ccccc2)c(-c2nn(C)c(=O)cc2OC)c1,5.72
16,CCOc1cc(=O)n(C)cc1-c1cc(NS(=O)(=O)CC)cnc1Oc1ccc(F)cc1F,8.06
17,CCOc1cc(=O)n(C)cc1-c1cc(CS(C)(=O)=O)ccc1Oc1ccc(F)cc1F,6.92
18,COc1cc(=O)n(C)nc1-c1cc(NC(C)=O)ccc1Oc1ccccc1,6.05
19,COc1cc(=O)n(C)nc1-c1cc(NS(C)(=O)=O)ccc1Oc1ccccc1,6.85
20,CNc1cc(=O)n(C)nc1-c1ccccc1,3.80
21,COc1cc(=O)n(C)nc1-c1cc(N)ccc1Oc1ccccc1,5.77
22,CCS(=O)(=O)Nc1ccc(Oc2ccc(F)cc2F)c(-c2cn(C)c(=O)cc2OCC(F)(F)F)c1,7.66

# Target: T1, Bromodomain-containing protein 4
# Assay: Inhibition of BRD4 in human NCI-H1299 cells after 24 hrs by Bright-Glo luciferase reporter gene assay
# Type: cell-based
# Conditions: not given
row,SMILES,pEC50
1,CCS(=O)(=O)c1ccc2c(c1)-c1cn(C)c(=O)cc1OCCCc1ccccc1O2,7.59
2,CCOc1cc(=O)n(C)cc1-c1cc(NS(=O)(=O)CC)ccc1Oc1ccc(OC(F)(F)F)cc1,6.68
3,CCOc1cc(=O)n(C)cc1-c1cc(NS(=O)(=O)CC)ccc1Oc1ccc(Cl)cc1,7.57
4,CCS(=O)(=O)Nc1ccc(Oc2ccc(F)cc2F)c(-c2cn(C)c(=O)cc2OCC(C)(C)O)c1,5.96
5,CCS(=O)(=O)Nc1ccc(Oc2ccccc2)c(-c2cn(C)c(=O)cc2OC)c1,7.17
6,COc1cc(=O)n(C)cc1-c1ccccc1Oc1ccccc1,5.55
7,CCOc1cc(=O)n(C)cc1-c1cc(NS(=O)(=O)CC)ccc1Oc1cccnc1,6.82
8,CCOC(=O)Nc1ccc(Oc2ccccc2)c(-c2nn(C)c(=O)cc2OC)c1,5.31
9,CCS(=O)(=O)Nc1ccc(Oc2ccc(F)cc2F)c(-c2cn(C)c(=O)cc2OCCN2CCOCC2)c1,5.66
10,COc1cc(=O)n(C)cc1-c1cc(NS(C)(=O)=O)ccc1Oc1ccccc1,7.11
11,CCS(=O)(=O)Nc1ccc(Oc2ccc(F)cc2F)c(-c2cn(C)c(=O)cc2OCC(C)C)c1,6.74
12,CCOc1cc(=O)n(C)cc1-c1cc(NS(=O)(=O)CC)ccc1OC1CCC(F)(F)CC1,6.41
13,CCNc1cc(=O)n(C)cc1-c1cc(NS(=O)(=O)CC)ccc1Oc1ccc(F)cc1F,6.85
14,CCNC(=O)Nc1ccc(Oc2ccccc2)c(-c2nn(C)c(=O)cc2OC)c1,5.55
15,CCOc1cc(=O)n(C)cc1-c1cc(NS(=O)(=O)CC)cnc1Oc1ccc(F)cc1F,7.35
16,CCOc1cc(=O)n(C)cc1-c1cc(CS(C)(=O)=O)ccc1Oc1ccc(F)cc1F,6.64
17,COc1cc(=O)n(C)nc1-c1cc(NC(C)=O)ccc1Oc1ccccc1,6.43
18,COc1cc(=O)n(C)nc1-c1cc(NS(C)(=O)=O)ccc1Oc1ccccc1,6.64
19,COc1cc(=O)n(C)nc1-c1cc(N)ccc1Oc1ccccc1,5.54
20,CCS(=O)(=O)Nc1ccc(Oc2ccc(F)cc2F)c(-c2cn(C)c(=O)cc2OCC(F)(F)F)c1,7.00

# Test system: MX1
# Assay: Antiproliferative activity against human MX1 cells after 72 hrs by Cell Titer Glo assay
# Type: functional, cell-based
# Conditions: MX1, 72 h
row,SMILES,pEC50
1,CCS(=O)(=O)c1ccc2c(c1)-c1cn(C)c(=O)cc1OCCCc1ccccc1O2,8.16
2,CCOc1cc(=O)n(C)cc1-c1cc(NS(=O)(=O)CC)ccc1Oc1ccc(OC(F)(F)F)cc1,7.21
3,CCOc1cc(=O)n(C)cc1-c1cc(NS(=O)(=O)CC)ccc1Oc1ccc(Cl)cc1,7.74
4,CCS(=O)(=O)Nc1ccc(Oc2ccc(F)cc2F)c(-c2cn(C)c(=O)cc2OCC(C)(C)O)c1,6.15
5,CCS(=O)(=O)Nc1ccc(Oc2ccccc2)c(-c2cn(C)c(=O)cc2OC)c1,7.80
6,COc1cc(=O)n(C)cc1-c1ccccc1Oc1ccccc1,5.82
7,CCOc1cc(=O)n(C)cc1-c1cc(NS(=O)(=O)CC)ccc1Oc1cccnc1,7.30
8,CCOC(=O)Nc1ccc(Oc2ccccc2)c(-c2nn(C)c(=O)cc2OC)c1,5.35
9,CCS(=O)(=O)Nc1ccc(Oc2ccc(F)cc2F)c(-c2cn(C)c(=O)cc2OCCN2CCOCC2)c1,< 5.52
10,COc1cc(=O)n(C)cc1-c1cc(NS(C)(=O)=O)ccc1Oc1ccccc1,6.89
11,CCS(=O)(=O)Nc1ccc(Oc2ccc(F)cc2F)c(-c2cn(C)c(=O)cc2OCC(C)C)c1,6.85
12,CCOc1cc(=O)n(C)cc1-c1cc(NS(=O)(=O)CC)ccc1OC1CCC(F)(F)CC1,6.60
13,CCNc1cc(=O)n(C)cc1-c1cc(NS(=O)(=O)CC)ccc1Oc1ccc(F)cc1F,7.52
14,CCNC(=O)Nc1ccc(Oc2ccccc2)c(-c2nn(C)c(=O)cc2OC)c1,4.89
15,CCOc1cc(=O)n(C)cc1-c1cc(NS(=O)(=O)CC)cnc1Oc1ccc(F)cc1F,7.49
16,CCOc1cc(=O)n(C)cc1-c1cc(CS(C)(=O)=O)ccc1Oc1ccc(F)cc1F,6.85
17,COc1cc(=O)n(C)nc1-c1cc(NC(C)=O)ccc1Oc1ccccc1,5.89
18,COc1cc(=O)n(C)nc1-c1cc(NS(C)(=O)=O)ccc1Oc1ccccc1,6.14
19,COc1cc(=O)n(C)nc1-c1cc(N)ccc1Oc1ccccc1,5.14
20,CCS(=O)(=O)Nc1ccc(Oc2ccc(F)cc2F)c(-c2cn(C)c(=O)cc2OCC(F)(F)F)c1,6.92

# Test system: not listed separately
# Assay: Lipophilicity, log D of the compound
# Type: physicochemical
# Conditions: octanol/water
row,SMILES,logD
1,CCS(=O)(=O)c1ccc2c(c1)-c1cn(C)c(=O)cc1OCCCc1ccccc1O2,2.8 to 4.3
2,CCS(=O)(=O)Nc1ccc(Oc2ccc(F)cc2F)c(-c2cn(C)c(=O)cc2OCC(C)(C)O)c1,2.8 to 4.3
3,CCS(=O)(=O)Nc1ccc(Oc2ccc(F)cc2F)c(-c2cn(C)c(=O)cc2OCCN2CCOCC2)c1,2.8 to 4.3
4,CCS(=O)(=O)Nc1ccc(Oc2ccc(F)cc2F)c(-c2cn(C)c(=O)cc2OCC(C)C)c1,2.8 to 4.3
5,CCNc1cc(=O)n(C)cc1-c1cc(NS(=O)(=O)CC)ccc1Oc1ccc(F)cc1F,2.8 to 4.3
6,CCOc1cc(=O)n(C)cc1-c1cc(NS(=O)(=O)CC)cnc1Oc1ccc(F)cc1F,2.8 to 4.3
7,CCOc1cc(=O)n(C)cc1-c1cc(CS(C)(=O)=O)ccc1Oc1ccc(F)cc1F,2.8 to 4.3
8,CCS(=O)(=O)Nc1ccc(Oc2ccc(F)cc2F)c(-c2cn(C)c(=O)cc2OCC(F)(F)F)c1,2.8 to 4.3

# Test system: Liver
# Assay: Unbound intrinsic clearance in mouse liver microsomes
# Type: ADME, microsome
# Conditions: not given
row,SMILES,CL free [mL/min/kg]
1,CCS(=O)(=O)c1ccc2c(c1)-c1cn(C)c(=O)cc1OCCCc1ccccc1O2,900
2,CCOc1cc(=O)n(C)cc1-c1cc(NS(=O)(=O)CC)ccc1Oc1ccc(OC(F)(F)F)cc1,1500
3,CCOc1cc(=O)n(C)cc1-c1cc(NS(=O)(=O)CC)ccc1Oc1ccc(Cl)cc1,< 148
4,CCOc1cc(=O)n(C)cc1-c1cc(NS(=O)(=O)CC)ccc1Oc1cccnc1,< 53.3
5,CCOc1cc(=O)n(C)cc1-c1cc(NS(=O)(=O)CC)ccc1OC1CCC(F)(F)CC1,167
